This is an account of results in patent US8592422B2, “Bicyclic triazole and pyrazole lactams as allosteric modulators of mGluR5 receptors” (Vanderbilt University, priority 2010, dated 2013).

Structures are written as SMILES. Where only a bound is given, the exact number is not on record here.

The assay has as its target T1, human mGluR5a receptor (Homo sapiens, UniProt P41594).
T1 construct: cDNA subcloned into pcDNA3.1(-)
The assay is described as follows: Cell-based functional Ca2+ mobilization assay (FDSS), potentiation of glutamate EC20 response. Conditions: for pEC50 / EC50: HEK cells transfected with human mGluR5 (H10H or H12H), in presence of EC20 glutamate; for EC50: read-out: EC50; for Emax (%) / Emax: maximum % effect in concentration-response curve, as percent of response to maximally effective glutamate. The method, then:
Human embryonic kidney (HEK) cells transfected with rat mGluR5 were plated in clear bottom assay plates for assay in a Functional Drug Screening System (FDSS). In the alternative assay, HEK cells transfected with human mGluR5 were plated for assay in the FDSS. In some cases the HEK cells transfected with human mGluR5 were the H10H cell line. Alternatively, the HEK cells transfected with human mGluR5 were the H12H cell line. […] The cells were loaded with a Ca^2+-sensitive fluorescent dye (e.g., Fluo-4), and the plates were washed and placed in the FDSS instrument. After establishment of a fluorescence baseline for twelve seconds, the compounds of the present invention were added to the cells, and the response in cells was measured. Alternatively, in various further aspects, after establishment of a fluorescence baseline for about three seconds, the compounds of the present invention were added to the cells, and the response in cells was measured. Five minutes later, an mGluR5 agonist (e.g., glutamate, 3,5-dihydroxyphenylglycine, or quisqualate) was added to the cells, and the response of the cells was measured.
The above described assay operated in two modes. In the first mode, a range of concentrations of the present compounds were added to cells, followed by a single fixed concentration of agonist. If a compound acted as a potentiator, an EC50 value for potentiation and a maximum extent of potentiation by the compound at this concentration of agonist was determined by non-linear curve fitting. In the second mode, several fixed concentrations of the present compounds were added to various wells on a plate, followed by a range of concentrations of agonist for each concentration of present compound; the EC50 values for the agonist at each concentration of compound were determined by non-linear curve fitting. A decrease in the EC50 value of the agonist with increasing concentrations of the present compounds (a leftward shift of the agonist concentration-response curve) is an indication of the degree of mGluR5 potentiation at a given concentration of the present compound. An increase in the EC50 value of the agonist with increasing concentrations of the present compounds (a rightward shift of the agonist concentration-response curve) is an indication of the degree of mGluR5 antagonism at a given concentration of the present compound. The second mode also indicates whether the present compounds also affect the maximum response to mGluR5 to agonists.
The mGluR5 activity was determined using the metabotropic glutamate receptor activity assays in human embryonic kidney cells as described herein, wherein the human embryonic kidney cells were transfected with human mGluR5. The compounds in Table 1 were synthesized with methods identical or analogous to those shown herein. The requisite starting materials were commercially available, described in the literature, or readily synthesized by one skilled in the art of organic synthesis. The compound number given in Table I corresponds to the compound number in Table II and the structure given therein.
Human mGluR5a cDNA in pCMV6-XL6 mammalian expression plasmid was purchased from OriGene Technologies, Inc. (catalogue number SC326357) and subcloned into pcDNA3.1(−). Human embryonic kidney (HEK) 293A cells were then transfected with human mGluR5a pcDNA3.1(−) using LipofectAmine-2000 (Invitrogen) and monoclones were selected and tested for functional response using a Ca^2+ mobilization assay. Monoclones were named for the species (“H” for human) plus the location on the plate (e.g. “10H”).
HEK cells transfected with the human mGluR5a receptor (H10H or H12H cell line) were plated at 15,000 cells/well in clear-bottomed poly-D-lysine-coated assay plates (BD Falcon) in glutamate-glutamine-free growth medium and incubated overnight at 37° C. and 5% CO2.

T1 sequence (P41594 21-1180 isoform P41594-2 limits assumed): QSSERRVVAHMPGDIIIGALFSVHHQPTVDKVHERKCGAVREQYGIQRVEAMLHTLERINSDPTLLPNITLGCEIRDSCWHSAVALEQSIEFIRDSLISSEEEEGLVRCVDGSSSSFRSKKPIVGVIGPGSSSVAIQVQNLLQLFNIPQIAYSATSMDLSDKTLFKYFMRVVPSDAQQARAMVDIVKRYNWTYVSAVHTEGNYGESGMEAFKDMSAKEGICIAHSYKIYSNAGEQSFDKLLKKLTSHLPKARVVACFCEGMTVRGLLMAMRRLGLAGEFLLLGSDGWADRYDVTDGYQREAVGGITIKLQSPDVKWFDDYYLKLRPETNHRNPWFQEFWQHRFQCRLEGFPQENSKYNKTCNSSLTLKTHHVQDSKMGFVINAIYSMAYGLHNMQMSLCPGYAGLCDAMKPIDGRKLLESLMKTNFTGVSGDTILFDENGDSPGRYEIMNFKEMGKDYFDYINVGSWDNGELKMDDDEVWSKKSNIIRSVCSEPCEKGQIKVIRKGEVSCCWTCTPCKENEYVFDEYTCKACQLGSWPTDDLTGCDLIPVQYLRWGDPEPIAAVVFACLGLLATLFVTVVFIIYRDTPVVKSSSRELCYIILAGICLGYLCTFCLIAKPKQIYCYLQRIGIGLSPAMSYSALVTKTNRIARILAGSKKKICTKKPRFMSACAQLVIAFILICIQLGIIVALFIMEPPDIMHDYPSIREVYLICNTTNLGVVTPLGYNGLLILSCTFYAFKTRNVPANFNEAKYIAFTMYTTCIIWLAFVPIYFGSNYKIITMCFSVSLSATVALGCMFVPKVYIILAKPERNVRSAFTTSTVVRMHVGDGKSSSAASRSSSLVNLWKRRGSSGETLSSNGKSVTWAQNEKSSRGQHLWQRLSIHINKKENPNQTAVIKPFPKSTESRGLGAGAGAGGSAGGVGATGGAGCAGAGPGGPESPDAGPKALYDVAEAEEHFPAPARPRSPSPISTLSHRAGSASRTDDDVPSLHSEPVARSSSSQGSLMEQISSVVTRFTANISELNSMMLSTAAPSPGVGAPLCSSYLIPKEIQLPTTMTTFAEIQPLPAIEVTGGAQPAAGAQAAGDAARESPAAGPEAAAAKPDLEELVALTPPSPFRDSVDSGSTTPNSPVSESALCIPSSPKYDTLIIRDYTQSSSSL

The pEC50 is −log10 of the EC50, conventionally taken in molar units. For orientation: EC50 means the concentration that produces a half-maximal response. On to `O=C1c2cc(COc3ccccc3)nn2C(F)CN1c1ccc(F)cc1` (single isomer, unassigned) [Example 273], for which the negative logarithm of the EC50 (pEC50) was 6.97, the 50% effective concentration (EC50) turned out to be 107 nM and the “Emax (%)” value amounted to 68%.

`Cc1nc2cc(N3CC(C)n4nc(COc5ccccc5)cc4C3=O)ccc2s1` (single isomer, unassigned) [Example 376]: the negative-log EC50 (pEC50) was 7.12, the half-maximal effective concentration (EC50) is 75 nM and the “Emax (%)” value is listed as 60%.

As to `O=C1NCCn2nc(COc3ccccc3)cc21` [Example 1], the pEC50 was 5.65, the EC50 was determined as 2240 nM and the “Emax (%)” value came out at 69%.

For `CN1CCn2nc(COc3ccccc3)cc2C1=O` [Example 2], the negative-log EC50 (pEC50) is given as 5.87, the concentration giving a half-maximal response (EC50) turned out to be 1350 nM and the “Emax (%)” value amounted to 72%.

`O=C1c2cc(COc3ccccc3)nn2CCN1c1ccc(F)cc1F` [Example 3]: the pEC50 is reported as 6.94, the concentration giving a half-maximal response (EC50) came out at 115 nM and the “Emax (%)” value is 101%.

As a reminder, the Emax is the size of the effect at its maximum, as opposed to the concentration needed. Consider `O=c1c2nc(COc3ccccc3)nn2ccn1-c1ccc(F)cc1` [Example 4], for which the EC50 turned out to be 617 nM and the Emax is 52%.

As for `O=C1c2nc(COc3ccccc3)nn2CCN1c1ccc(F)cc1` [Example 5], the pEC50 is on record as 5.59, the EC50 turned out to be 2570 nM and the “Emax (%)” value stood at 73%.

Regarding `O=C1c2cc(COc3ccccc3)nn2CCN1c1ccc(F)cc1` [Example 6], the pEC50 is 7.14, the EC50 came out at 72 nM and the “Emax (%)” value was 82%.

For `O=C1c2cc(COc3ccccc3)nn2CCN1c1ccc(F)cn1` [Example 11], the negative logarithm of the EC50 (pEC50) was found to be 6.81, the EC50 was 155 nM and the “Emax (%)” value was 79%.

As for `O=C1c2cc(COc3ccccc3)nn2CCN1c1ccccn1` [Example 12], the negative-log EC50 (pEC50) is 6.06, the EC50 was determined as 871 nM and the “Emax (%)” value came to 69%.

For the compound `O=C1c2cc(COc3ccccc3)nn2CCN1c1cccnc1` [Example 13], the pEC50 came to 5.73, the EC50 was found to be 1860 nM and the “Emax (%)” value is recorded as 64%.

`Cc1ccc(N2CCn3nc(COc4ccccc4)cc3C2=O)nc1` [Example 16]: the pEC50 is 6.68, the EC50 stood at 209 nM and the “Emax (%)” value was 76%.

For the compound `CC(C)CN1CCn2nc(COc3ccccc3)cc2C1=O` [Example 26], the negative-log EC50 (pEC50) amounted to 6.98, the EC50 turned out to be 105 nM and the “Emax (%)” value is 75%.

With `O=C1c2cc(COc3ccccc3)nn2CCN1c1ccncc1F` [Example 29], the pEC50 was determined as 6.24, the EC50 was found to be 575 nM and the “Emax (%)” value amounted to 80%.

As for `Cc1cccnc1N1CCn2nc(COc3ccccc3)cc2C1=O` [Example 30], the concentration giving a half-maximal response (EC50) was 537 nM and the Emax turned out to be 75%.

Regarding `Cc1ccncc1N1CCn2nc(COc3ccccc3)cc2C1=O` [Example 32], the pEC50 came to 6.13, the 50% effective concentration (EC50) is 741 nM and the “Emax (%)” value amounted to 74%.

In the case of `Cn1ccn2nc(COc3ccccc3)cc2c1=O` [Example 37], the half-maximal effective concentration (EC50) amounted to 2070 nM and the Emax worked out at 74%.

In the case of `Cc1cccc(N2CCn3nc(COc4ccccc4)cc3C2=O)c1` [Example 48], the pEC50 was determined as 7.09, the EC50 was 81 nM and the “Emax (%)” value stood at 65%.

On to `Cc1ccc(N2CCn3nc(COc4ccccc4)cc3C2=O)cc1` [Example 49], for which the negative-log EC50 (pEC50) is listed as 7.09, the half-maximal effective concentration (EC50) stood at 81 nM and the “Emax (%)” value is 64%.

Consider `COc1ccc(N2CCn3nc(COc4ccccc4)cc3C2=O)cc1` [Example 50], for which the pEC50 is reported as 6.92, the concentration for a half-maximal effect (EC50) stood at 120 nM and the “Emax (%)” value was determined as 58%.

For `COc1cc(N2CCn3nc(COc4ccccc4)cc3C2=O)ccc1F` [Example 51], the negative-log EC50 (pEC50) was 7.26, the EC50 is 55 nM and the “Emax (%)” value is listed as 61%.

With `Cc1cc(N2CCn3nc(COc4ccccc4)cc3C2=O)ccc1F` [Example 52], the negative logarithm of the EC50 (pEC50) worked out at 7.58, the concentration giving a half-maximal response (EC50) stood at 26 nM and the “Emax (%)” value is listed as 68%.

Turning to `Cc1cccc(N2CCn3nc(COc4ccccc4)cc3C2=O)c1C` [Example 56], the negative logarithm of the EC50 (pEC50) is on record as 7.62, the EC50 was determined as 24 nM and the “Emax (%)” value is recorded as 69%.

Regarding `CCOc1ccccc1N1CCn2nc(COc3ccccc3)cc2C1=O` [Example 57], the pEC50 is 6.82, the EC50 stood at 150 nM and the “Emax (%)” value was determined as 67%.

Take `COc1ccc(N2CCn3nc(COc4ccccc4)cc3C2=O)cc1F` [Example 58]: the negative logarithm of the EC50 (pEC50) is 6.92, the EC50 was determined as 120 nM and the “Emax (%)” value stood at 58%.

For `Cc1cc(F)ccc1N1CCn2nc(COc3ccccc3)cc2C1=O` [Example 60], the pEC50 is on record as 7.40, the EC50 worked out at 40 nM and the “Emax (%)” value worked out at 66%.

With `Cc1ccc(F)cc1N1CCn2nc(COc3ccccc3)cc2C1=O` [Example 61], the negative logarithm of the EC50 (pEC50) was 7.19, the concentration for a half-maximal effect (EC50) came to 65 nM and the “Emax (%)” value is 68%.

As to `Cc1ccc(N2CCn3nc(COc4ccccc4)cc3C2=O)cc1F` [Example 62], the pEC50 amounted to 7.27, the EC50 came to 53 nM and the “Emax (%)” value was 60%.

Regarding `COCc1ccccc1N1CCn2nc(COc3ccccc3)cc2C1=O` [Example 63], the pEC50 is given as 6.37, the EC50 was 430 nM and the “Emax (%)” value was 68%.

For the compound `O=C1c2cc(COc3ccccc3)nn2CCN1c1cccc(C2CC2)n1` [Example 66], the negative logarithm of the EC50 (pEC50) came out at 7.03, the EC50 was determined as 93 nM and the “Emax (%)” value was found to be 72%.

Regarding `COc1nc(N2CCn3nc(COc4ccccc4)cc3C2=O)ccc1F` [Example 73], the negative logarithm of the EC50 (pEC50) is listed as 7.64, the EC50 was 23 nM and the “Emax (%)” value was determined as 67%.

In the case of `O=C1c2cc(COc3ccccc3)nn2CCN1c1cccc(CCF)n1` [Example 75], the negative logarithm of the EC50 (pEC50) was determined as 6.69, the concentration giving a half-maximal response (EC50) worked out at 204 nM and the “Emax (%)” value amounted to 68%.

As to `O=C1c2cc(COc3ccccc3)nn2CCN1c1ncccn1` [Example 77], the pEC50 is on record as less than 5.00, the concentration for a half-maximal effect (EC50) was greater than 10000 nM and the “Emax (%)” value came out at 42%.

Regarding `COc1cccnc1N1CCn2nc(COc3ccccc3)cc2C1=O` [Example 79], the pEC50 is 5.66, the half-maximal effective concentration (EC50) was found to be 2190 nM and the “Emax (%)” value came to 48%.

For the compound `O=C1c2cc(COc3ccccc3)nn2CCN1c1ncccc1F` [Example 81], the negative-log EC50 (pEC50) was 6.26, the EC50 was 550 nM and the “Emax (%)” value is on record as 67%.

For the compound `Cc1ccnc(N2CCn3nc(COc4ccccc4)cc3C2=O)n1` [Example 82], the pEC50 was found to be 5.81, the EC50 came out at 1550 nM and the “Emax (%)” value worked out at 61%.

For the compound `COCCOc1cccc(N2CCn3nc(COc4ccccc4)cc3C2=O)n1` [Example 85], the 50% effective concentration (EC50) was determined as 437 nM and the maximal effect (Emax) was 72%.

For the compound `Cc1cc(F)cnc1N1CCn2nc(COc3ccccc3)cc2C1=O` [Example 86], the negative-log EC50 (pEC50) was found to be 6.69, the concentration for a half-maximal effect (EC50) turned out to be 204 nM and the “Emax (%)” value came to 73%.
